Measurements published in patent US20210128500A1, “Methods of Treating Conditions Associated with Leaky Gut Barrier” (The Regents of the University of California, priority 2017, published 2021).
Entries after “also recorded” stand apart in the source; their conditions may differ.

What was measured:
[1] = system: enteroid-derived monolayers (EDMs); assay: Tight junction integrity by occludin / pS245GIV staining in EDMs challenged with E. coli (FIG. 4C); assay type: cell-based, mouse and human; conditions: Metformin pre-treatment 1 μM, 18 h; E. coli K12 8 h
Description: (§1) In FIG. 4B, TEER was measured across EDMs that were pre-treated or not with Metformin (1 μM, 18 h) prior to challenge with E. coli K12 strain for 8 h. Drop in TEER (Y axis) is plotted. A representative experiment is shown. […] Activation of the AMPK→GIV stress polarity axis was monitored using pS245GIV (red). […] Arrowheads=separation of TJs and loss of pS245GIV.
(§2) Detailed Methods: Isolation of enteroids and generation of enteroid-derived monolayers (EDM): Crypts are isolated from human colonic biopsies by digesting tissue with Collagenase type I (2 mg/ml; Invitrogen), filtered with a cell strainer and washed with medium (DMEM/F12 with HEPES, 10% FBS), as outlined before. The epithelial units are suspended in […] (BD basement membrane matrix). Cell-[…] suspension (15 μl) are placed at the center of the 24-well plate on ice and placed on the incubator upside-down for polymerization (as shown in FIG. 4A). After 10 min, 500 μl of 50% conditioned media (prepared from L-WRN cells with Wnt3a, R-spondin and Noggin) containing 10 μM Y27632 (ROCK inhibitor) and 10 μM SB431542 (an inhibitor for TGF-β type I receptor) is added to the suspension. The medium is changed every 2 days and the enteroids are expanded and frozen in liquid nitrogen. To prepare EDMs, single cells from enteroids in 5% conditioned media are added to diluted […] (1:30) as done before. […]

[2] = system: enteroid-derived monolayers (EDMs); assay: TEER across enteroid-derived monolayers challenged with E. coli K12 (FIG. 4B); assay type: cell-based, mouse and human; conditions: Metformin pre-treatment 1 μM, 18 h; E. coli K12 challenge 8 h
Description: as §1, §2

[3] = system: CLDN2; assay: CLDN2 biomarker in response to IBD-associated microbes (FIG. 15); assay type: cell-based
[4] = system: AMPK→pS245GIV axis; assay: Activity of the AMPK→pS245GIV axis in human EDMs from non-diseased aged colons; assay type: cell-based
[5] = system: high-fat fed mice; conditions: cited from earlier work
[6] = system: Mouse intestine-derived EDMs; assay: Tight junction integrity by occludin / pS245GIV staining in EDMs exposed to LPS or H2O2 (FIG. 5); assay type: cell-based; conditions: 1 μM Metformin
Description: Mouse intestine-derived EDMs were exposed to indicated amounts of LPS (top) or H2O2 (bottom) after treating them or not with 1 μM Metformin. Fixed monolayers were assessed for TJs by staining for occludin (a TJ marker; green grey scales). Activation of the AMPK→GIV stress polarity axis was monitored using pS245GIV (red grey scales). […] TEER measurements agree with IF findings (not shown).

[7] = system: AMPK 32-subunit-containing isoforms; assay: AMPK activation by A769662, 32-subunit-containing isoforms (FIG. 18); assay type: biochemical
[8] = target: AMPK α1β1γ1 (Homo sapiens, UniProt Q13131+Q9Y478); assay: AMPK activation by A769662, α1β1γ1 isoform (fold activation, FIG. 18); assay type: biochemical; conditions: estimated
[9] = system: DSS-induced colitis; assay: DSS-induced colitis (FIGS. 20A-20E); assay type: in vivo; conditions: activation of AMPK with A769662

AMPK α1β1γ1, sequence (Q13131 whole entry, canonical isoform): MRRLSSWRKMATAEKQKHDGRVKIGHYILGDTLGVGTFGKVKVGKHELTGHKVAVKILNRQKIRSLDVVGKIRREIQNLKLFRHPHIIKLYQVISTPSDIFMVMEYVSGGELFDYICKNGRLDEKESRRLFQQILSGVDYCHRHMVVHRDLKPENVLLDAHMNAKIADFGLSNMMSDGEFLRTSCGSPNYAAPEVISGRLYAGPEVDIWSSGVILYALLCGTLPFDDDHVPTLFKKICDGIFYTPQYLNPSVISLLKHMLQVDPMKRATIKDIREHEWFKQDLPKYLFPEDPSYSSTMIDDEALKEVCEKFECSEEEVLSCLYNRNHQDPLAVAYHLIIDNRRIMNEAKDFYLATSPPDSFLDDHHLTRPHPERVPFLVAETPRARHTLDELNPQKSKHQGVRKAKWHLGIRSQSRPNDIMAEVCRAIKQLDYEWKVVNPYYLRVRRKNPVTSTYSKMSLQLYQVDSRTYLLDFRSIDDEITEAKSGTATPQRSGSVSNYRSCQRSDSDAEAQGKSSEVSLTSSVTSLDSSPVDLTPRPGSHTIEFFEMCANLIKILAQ
AMPK α1β1γ1, sequence (Q9Y478 whole entry, canonical isoform): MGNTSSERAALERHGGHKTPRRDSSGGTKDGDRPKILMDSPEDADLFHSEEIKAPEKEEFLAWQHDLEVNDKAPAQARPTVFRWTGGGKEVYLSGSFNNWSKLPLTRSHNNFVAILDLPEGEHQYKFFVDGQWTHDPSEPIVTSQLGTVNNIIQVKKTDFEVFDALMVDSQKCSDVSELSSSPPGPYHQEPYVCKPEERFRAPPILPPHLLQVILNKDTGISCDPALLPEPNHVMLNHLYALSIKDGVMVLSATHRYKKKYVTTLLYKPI
AMPK α1β1γ1, sequence (P54619 whole entry partner, canonical isoform): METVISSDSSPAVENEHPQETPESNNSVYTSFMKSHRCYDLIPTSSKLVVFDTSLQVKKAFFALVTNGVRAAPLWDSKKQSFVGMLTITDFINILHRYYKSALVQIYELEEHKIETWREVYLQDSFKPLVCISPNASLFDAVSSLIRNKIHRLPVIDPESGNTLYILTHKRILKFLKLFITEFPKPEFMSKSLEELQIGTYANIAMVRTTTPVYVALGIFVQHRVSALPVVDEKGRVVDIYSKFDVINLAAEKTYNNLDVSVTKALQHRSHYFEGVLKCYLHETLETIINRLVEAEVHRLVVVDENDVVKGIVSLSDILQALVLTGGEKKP

What does the source list for `CN(C)C(=N)N=C(N)N` [Metformin]?
TJ preservation (occludin pattern) [1]: TJs were better preserved; also recorded: protects TJs against stress-induced collapse; Drop in TEER [2]: significantly reduced the drop in TEER; increase in the CLDN2 biomarker [3]: prevents the increase; activity of the AMPK→pS245GIV axis [4]: can be increased; endotoxemia [5]: attenuates endotoxemia; gut barrier integrity [5]: enhances gut barrier integrity; insulin signaling [5]: enhances insulin signaling; TJ preservation (occludin pattern) ([6]; H2O2 stress): TJs were better preserved; also recorded: protects TJs against stress-induced collapse; TJ preservation (occludin pattern) ([6]; LPS stress): TJs were better preserved; also recorded: protects TJs against stress-induced collapse

Which AC50 [7] does the source give for `N#Cc1c(O)c2c(-c3ccc(-c4ccccc4O)cc3)csc2[nH]c1=O` [A769662] here?
The AC50 was over 40 µM.

And the AC50 [8]?
Its AC50 is 72.2 nM.

What about the colon length [9] of the same compound?
Its colon length is “preserves colon length”.

And the “healing of colonic mucosa” value [9]?
The value was “heals colonic mucosa”.
